The term IC50 denotes the point on the concentration scale where inhibition reaches its midpoint.

Read-outs that look alike come from different tables or passages of the source.

The values that follow come from publication PMC4087041, “Effect of the Piperazine Unit and Metal-Binding Site Position on the Solubility and Anti-Proliferative Activity of Ruthenium(II)- and Osmium(II)- Arene Complexes of Isomeric Indolo[3,2-c]quinoline—Piperazine Hybrids” (Inorganic Chemistry, 2014).

Series [1] concerns SK-N-MC neuroepithelioma cells. Nature of the series: MTT assay, inhibition of growth of SK-N-MC cells. As to conditions: 72 h, medium with diferric transferrin 1.25 μM, mean ± SD (three experiments), read-out: IC50 at inhibiting the growth of SK-N-MC neuroepithelioma cells. The class given is cell-based, Human. The method, then:
Human SK-N-MC neuroepithelioma cells were obtained from the American Type Culture Collection (ATCC; Manassas, VA). The SK-N-MC cell type was grown as described previously.[51]
The effect of complexes [1a,b]Cl–[3a,b]Cl on the cellular proliferation of SK-N-MC cells was examined using the 1-(4,5-dimethylthiazol-2-yl)-2,5-diphenyl-tetrazolium (MTT) assay by standard techniques.[52],[53] Human SK-N-MC cells were chosen for these studies as the antiproliferative effect of metal complexes has been extensively examined in this cell type.[52]−[54] MTT reduction is proportional to viable cell counts using SK-N-MC cells.[51] SK-N-MC cells were seeded at 1.5 × 10^4 cells/well in 96-well microtiter plates in a medium containing the compounds (0–50 μM) and human diferric transferrin (Tf) at 1.25 μM ([Fe] = 2.5 μM). Control samples contained Tf (1.25 μM) in the absence of the compounds. […] It is essential to add to the media when assessing the antiproliferative activity of the ligands used as positive controls, namely, desferrioxamine (DFO), di-2-pyridylketone 4,4-dimethyl-3-thiosemicarbazone (Dp44mT), and Doxorubicin.[61] The cells were incubated at 37 °C for 72 h, after which 10 μL of MTT solution (stock solution: 5 mg/mL) was added to each well and incubated for 2 h at 37 °C. After cell solubilization using 100 μL of 10% SDS–50% isobutanol in 0.01 M HCl, the plates were read at 570 nm using a scanning multiwell spectrophotometer. The inhibitory concentration (IC50) was defined as the concentration of the compound necessary to reduce the absorbance to 50% of the untreated control.

Series [2] can be described thus: Stability in DMSO by ESI mass spectrometry. As to conditions: DMSO solution, up to 19 h old, diluted with methanol 1:100, ESI-MS. The class given is physicochemical. From the text:
Complexes [3a]Cl and [3b]Cl remain intact when dissolved in DMSO.

Series [3] can be described thus: Hydrolysis / stability in aqueous media by HPLC. The class given is physicochemical. The conditions noted are these: for Estimated half-lifetime of the chlorido species: 75 μM solution in 20 mM phosphate buffer at pH 7.40, HPLC with UV detection at 300 nm; for Fraction of complex hydrolyzed after 24 h: 20 mM NaH2PO4/Na2HPO4 buffer at pH 7.40, 24 h, HPLC (Figure S4). The method, then: One-dimensional (1D) ^1H and ^13C NMR and two-dimensional (2D) ^1H–^1H COSY, ^1H–^1H TOCSY, ^1H–^1H ROESY or ^1H–^1H NOESY, ^1H–^13C HSQC, and ^1H–^13C HMBC NMR spectra were recorded on two Bruker Avance III spectrometers at 500.32 or 500.10 (^1H), and 125.82 or 125.76 (^13C) MHz, respectively, by using DMSO-d6 as a solvent at room temperature and standard pulse programs. ^1H and ^13C shifts are quoted relative to the solvent residual signals. The atom numbering scheme used for NMR assignments is depicted in Supporting Information, Scheme S1. Electrospray ionization mass spectrometry (ESI-MS) was carried out with a Bruker Esquire 3000 instrument, and the samples were dissolved in methanol. Elemental analyses were performed at the Microanalytical Laboratory of the University of Vienna with a PerkinElmer 2400 CHN Elemental Analyzer (PerkinElmer, Waltham, MA). Hydrolysis studies were undertaken on a ThermoFisher Dionex UltiMate 3000 HPLC (Waltham, MA) device. The column compartment was kept at 298 K. A Hypersil Gold C18 Reversed phase Silica Column (250 × 4.6 mm, 5 μm particle size, ThermoFisher; Waltham, MA) equipped with a guard column was used. The complexes were dissolved in either pure deionized water or phosphate buffer at pH 7.40 so that the final concentrations were 100 mM or 75 μM, respectively. Samples were automatically injected into the HPLC, and separation of the hydrolysis products was achieved by applying gradient elution (5–80% or 10–50% acetonitrile in 15 mM aqueous formic acid). Detection and quantification of the peaks was conducted using the ThermoFisher Dionex DAD-3000RS UV detector (Waltham, MA) at a wavelength of 300 nm and the Chromeleon 7 software package (ThermoFisher Dionex, Sunnyvale, CA).
Their stability in deionized water (Supporting Information, Figure S3) is very similar to that in buffered solution at physiological pH (Supporting Information, Figure S4; 20 mM NaH2PO4/Na2HPO4 buffer at pH 7.40). […] Attempts to establish the nature of the predominant hydrolysis reactions were then performed. The fractions containing the two peaks from the hydrolysis of [2a]Cl were collected and subjected to high-resolution ESI mass spectrometry. The most abundant mass at m/z 373.1397 could be attributed to the doubly charged fragment [M–2Cl]^2+, whereas the second peak at m/z 736.2786 was assigned to the hydroxido species [M–2Cl+OH]^+, clearly stemming from hydrolysis of the chlorido ligand.
Data were recorded every hour over 24 h using HPLC with UV detection at 300 nm (see Experimental Section for details). Quantification was done by normalizing the AUC to the AUC at 0 h.

As to “(η^6-p-Cymene)[6-(4-methylpiperazin-1-yl)-κN-(pyridin-2-yl-methylene)-11H-indolo[3,2-c]quinolin-8-κN-amine]chloridoruthenium(II) Chloride [[3a]Cl]”, the IC50 in series [1] was over 50 µM. For the same compound, the “Stability when dissolved in DMSO” value in series [2] was “remain intact”.

`CN(C)C(=S)NN=C(c1ccccn1)c1ccccn1` [Dp44mT, di-2-pyridylketone 4,4-dimethyl-3-thiosemicarbazone, reference compound]: the IC50 in series [1] was 0.004 ± 0.003 µM.

“(η^6-p-Cymene)[6-(4-methylpiperazin-1-yl)-κN-(pyridin-2-yl-methylene)-11H-indolo[3,2-c]quinolin-4-κN-amine]chloridoosmium(II) Chloride [[2b]Cl]”: the IC50 in series [1] worked out at 19.4 ± 1.28 µM. Further, in series [3], the “Estimated half-lifetime of the chlorido species” value is reported as “approximately 6 h” and the “Fraction of complex hydrolyzed after 24 h” value is listed as “greater than 90%”.

With `CC(=O)N(O)CCCCCNC(=O)CCC(=O)N(O)CCCCCNC(=O)CCC(=O)N(O)CCCCCN` [DFO, desferrioxamine, reference compound], in series [1] (Homo sapiens, SK-N-MC), the IC50 came out at 9.83 ± 0.39 µM.

As to “(η^6-p-Cymene)[6-(4-methylpiperazin-1-yl)-κN-(pyridin-2-yl-methylene)-11H-indolo[3,2-c]quinolin-2-κN-amine]chloridoosmium(II) Chloride [[1b]Cl]”, the IC50 in series [1] was over 50 µM.

Regarding `COc1cccc2c1C(=O)c1c(O)c3c(c(O)c1C2=O)C[C@@](O)(C(=O)CO)C[C@@H]3O[C@H]1C[C@H](N)[C@H](O)[C@H](C)O1` [DOX, doxorubicin, reference compound], in series [1] (Homo sapiens, SK-N-MC), the IC50 is 0.15 ± 0.05 µM.

In the case of “(η^6-p-Cymene)[6-(4-methylpiperazin-1-yl)-κN-(pyridin-2-yl-methylene)-11H-indolo[3,2-c]quinolin-2-κN-amine]chloridoruthenium(II) Chloride [[1a]Cl]”, the IC50 in series [1] turned out to be 39.8 ± 2.07 µM.

As to “(η^6-p-Cymene)[6-(4-methylpiperazin-1-yl)-κN-(pyridin-2-yl-methylene)-11H-indolo[3,2-c]quinolin-8-κN-amine]chloridoosmium(II) Chloride [[3b]Cl]”, in series [1], the IC50 was found to be 41.2 ± 2.37 µM. Also, the “Stability when dissolved in DMSO” value in series [2] was “remain intact”.

Turning to “(η^6-p-Cymene)[6-(4-methylpiperazin-1-yl)-κN-(pyridin-2-yl-methylene)-11H-indolo[3,2-c]quinolin-4-κN-amine]chloridoruthenium(II) Chloride [[2a]Cl]”, the IC50 in series [1] came to 18.4 ± 2.22 µM. In series [3], the “Estimated half-lifetime of the chlorido species” value is “approximately 6 h” and the “Fraction of complex hydrolyzed after 24 h” value was “greater than 90%”. In addition, in series [3] (75 μM solution in 20 mM phosphate buffer at pH 7.40, after 24 h), the “AUC of third (minor) hydrolysis species compared to the starting material” value is “approximately 12%”.
